Assay results published in patent publication US7772263B2, “Compounds for the treatment of inflammatory disorders” (Schering Corporation, priority 2006, dated 2010).

Target: T1, purified catalytic domain of recombinant human TACE (rhTACEc) (Homo sapiens, UniProt P78536, N452Q/S266A)
T1 construct: rhTACEc, Residue 215 to 477 with two mutation (S266A and N4520) and a 6×His tail; 6xHis (C); made in house; host or cells: baculovirus/Hi5 insect cells
Assay: TACE kinetic assay, cleavage of internally quenched fluorescent peptide substrate SPDL-3
Format: biochemical
Details: TACE; class letters A-D; read-out: Ki Rating

T1 sequence (P78536 215-477 S266A/N452Q limits assumed): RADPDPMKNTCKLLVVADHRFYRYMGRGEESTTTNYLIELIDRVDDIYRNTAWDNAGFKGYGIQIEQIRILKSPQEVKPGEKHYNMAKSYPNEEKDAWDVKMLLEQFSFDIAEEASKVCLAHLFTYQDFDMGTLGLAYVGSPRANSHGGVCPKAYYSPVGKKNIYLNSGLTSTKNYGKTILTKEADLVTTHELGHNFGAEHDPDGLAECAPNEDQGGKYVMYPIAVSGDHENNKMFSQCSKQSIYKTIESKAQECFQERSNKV

| Ki [nM] | SMILES |
| --- | --- |
| < 5 | COc1ccc2c(c1)C(=O)N(C[C@@]1(C#Cc3ccc(C)[nH]c3=O)NC(=O)NC1=O)C2 [Compound 1578] |
| < 5 | COc1ccc2c(c1)C(=O)N(C[C@@]1(C#Cc3cnccc3OC)NC(=O)NC1=O)C2 [Compound 1579] |
| < 5 | COc1ccc2c(c1)C(=O)N(C[C@@]1(C#Cc3cccc(C4(C)NC(=O)NC4=O)c3)NC(=O)NC1=O)C2 (some centres unmarked) [Compound 1580] |

The remaining lines, values behind:

| SMILES | Ki [nM] |
| --- | --- |
| COc1ccc2c(c1)C(=O)N(C[C@@]1(C#Cc3ccc4c(c3)CCC43NC(=O)NC3=O)NC(=O)NC1=O)C2 (some centres unmarked) [Compound 1576] | < 5 |
| COc1ccc2c(c1)C(=O)N(C[C@@]1(C#Cc3ccc(C4(C5CC5)NC(=O)NC4=O)cc3)NC(=O)NC1=O)C2 (some centres unmarked) [Compound 1577] | < 5 |
